Test results taken from patent US20120148501A1, “RADIOLOGICAL IMAGE ENHANCEMENT WITH TANTALUM CLUSTERS” (priority 2010, published 2012).

Legend:
[1] = Protocol: An ultrapurified tantalum cluster of formula (Ta6Cl12)Cl2 (Ultra Purified Ta Ta:TaCl5=1.2) was dissolved in water at a concentration of 355 mM, and in ethylene glycol at a concentration of 592 mM. The resulting water solutions were subjected to radiography to gauge their X-ray absorption characteristics. The samples were loaded into 2 mL polypropylene screw cap tubes with a 1 cm inner diameter. These samples were imaged alongside four calibration standards: 1) aluminum step wedge, 2) polycarbonate step wedge, 3) tantalum foils from 0.0127 to 0.5 mm thick, and 4) a water dilution series containing from 0 to 100% by volume of GE Healthcare's iodinated contrast agent, Visipaque, that contains 320 mg I/mL, in the same 2 mL tubes. Images were collected on a GE Healthcare OEC 9900 Elite digital X-ray Imaging System with a Tri-mode Image Intensifier at 50 KeV with filament currents varied from 0.4 to 9.0 mA. FIG. 2 below is a characteristic image of candidate aqueous samples (first two samples from the left) from the left, marked A and B) alongside calibration samples.
FIG. 3 is imaged through 8 cm of water serving as a low X-ray energy filter and simulating an arm or leg phantom to produce clinically equivalent images. […]

[2] = Cluster concentration from saturated solutions in a variety of solvents (solubility); type: physicochemical
Protocol: Optical absorbencies at ˜330 and ˜400 nm were used to track cluster concentration in solution. An approximate molar extinction coefficient was determined by dissolving an isolated and purified cluster sample in water and measuring its absorption. […] Early in the study, the highest sample concentration was 30 mM.
Substitutional doping of divalent zinc on trivalent tantalum sites provides for a reduction in the overall cluster charge. A reduction in the overall cluster charge is also attainable by adjusting the redox chemistry of the starting mixture. Target materials include (Ta6Cl12)Cl2, (Ta6Br12)Cl2, […], (Ta6Br12)Br2, (Ta6I12)I2, (Ta6Cl11O)Cl2, (Ta6Cl11S)CI2, and (Ta5ZnCl12)Cl2. […] These compositions were targeted to elicit materials with enhanced solubility or molecular handles that could be leveraged to further enhance the solubility. […] In the table below, EtOH stands for ethyl alcohol, EG stands for ethylene glycol, PS80 stands for Polysorbate 80, DMSO stands for dimethyl sulfoxide, and EDTA stands for ethylenediaminetetraacetic acid.
The solubility of (Ta6Cl12)Cl2 in an aqueous solution of saturated polyvinyl alcohol) (PVA) was investigated by stirring purified (Ta6Cl12)Cl2 with a solution of saturated PVA (MW-50k-85k, hydrolyzed).

[3] = Solubility of purified cluster in saturated aqueous poly(vinyl alcohol) solution; type: physicochemical; conditions: saturated PVA (MW 50k-85k, hydrolyzed), stirred
Source text: The solubility of (Ta6Cl12)Cl2 in an aqueous solution of saturated polyvinyl alcohol) (PVA) was investigated by stirring purified (Ta6Cl12)Cl2 with a solution of saturated PVA (MW-50k-85k, hydrolyzed). […] It appeared that PVA complexes of tantalum clusters were poorly soluble in water.

Substance: (Ta6Cl12)Cl2 [Ultra purified Ta Red]
- Remaining soluble cluster X-ray absorption, as equivalent Visipaque calibration solution [1]: ~37.5%
- Remaining soluble cluster X-ray absorption, as equivalent tantalum foil stack thickness [1]: ~0.0889 mm
- Cluster concentration from saturated solution, EG [2]: 592 mM
- Cluster concentration from saturated solution, H2O [2]: 355 mM

Substance: (Ta6Cl12)Cl2 [Ta Red, Ta:TaCl5=1.2]
- Cluster concentration from saturated solution, 5% EDTA [2]: 12 mM
- Cluster concentration from saturated solution, DMSO [2]: 2 mM
- Cluster concentration from saturated solution, H2O [2]: 59 mM

Substance: (Ta6Cl12)Cl2
- Solubility in aqueous solution of saturated poly(vinyl alcohol) [3]: most of the color was lost as a deep green precipitate formed
